Measured values: patent US20160279204A1, “PEPTIDES AND PHARMACEUTICAL COMPOSITIONS FOR USE IN THE TREATMENT BY NASAL ADMINISTRATION OF PATIENTS SUFFERING FROM ANXIETY AND SLEEP DISORDERS” (MAX-PLANCK-GESELLSCHAFT ZUR FÖRDERUNG DER WISSENSCHAFT E.V., priority 2011, published 2016)
Entries after “also recorded” stand apart in the source; their conditions may differ.

Legend:
[1] = system: C57BL/6N mice; test: Open field after bilateral NPS injection into CA1 of the VH; assay type: in vivo, mouse; conditions: 0.1 nmol NPS each side into CA1 of VH, 30 min
Description: Animals were fixed in a stereotactic frame and maintained under isoflurane anesthesia (Forene® 100%, V/V; induction: 2.5%; maintenance: 1.5%; in O2; flow rate: 1 L/min). The mice received acute analgesic treatment with Metacam s.c. during surgery (0.5 mg/kg; in NaCl). 23 gauge stainless-steel guide cannulas were implanted in the CA1 region of the VH at the following coordinates: 3.1 mm posterior, ±3 mm lateral from bregma, and 2 mm ventral from the skull surface (Franklin and Paxinos, 2007). The guide cannulas were fixed with two screws and a two-component adhesive. For behavioural experiments, animals were implanted bilaterally for later bilateral injection, whereas for Cy3-NPS injections, implantation was performed unilaterally. The animals were allowed to recover for at least 6 days before starting the behavioural experiments. Substance infusions were carried out manually, on mice anesthetised by brief inhalation of isoflurane, using a 30 gauge injection cannula connected to a Tygon tube and a 10 μL Hamilton syringe. […]
Mice were injected bilaterally either with 0.1 nmol NPS in 0.5 μL ACSF for each side or with 0.5 μL of ACSF for each side. […] Animal behaviour was videotaped and relevant parameters were analysed using the tracking software ANY-maze version 4.30 (Stoelting, Wood Dale, Ill., USA). […]

[2] = system: Bl6 and HAB mice; test: Dark-light test after intranasal NPS; assay type: in vivo, mouse; conditions: for time spent in the light chamber / total distance traveled: intranasal, 4 hrs
Description: Behavioural tests (open field, dark-light test and elevated plus maze (EPM)) following intranasal NPS application were performed sequentially. Each test lasted for 5 min with an inter-test interval of 5 min, as described previously (Bunck et al., 2009; Krömer et al., 2005). The animals' behaviour during testing was videotaped and relevant parameters were analysed with the tracking software ANY-maze version 4.30 (Stoelting, Wood Dale, Ill., USA). Native NPS (1 μg/μL) or vehicle (Ringer solution) were administered intranasally to the alert mouse as described above (total volume: 14 μL). Mice were tested 30 min and 4 hrs after intranasal administration of first drop. Animals were sacrificed 24 hrs after treatment and prefrontal cortex and bilateral hippocampi were prepared immediately and shock-frozen in methylbutane.
After having ascertained that nasally administered NPS reaches its target cells, anxiolytic effects of NPS were established for this transnasal delivery method. For this purpose, nasally 6.36 nmol NPS per mouse was administered to two mouse strains, Bl6 and HAB (high anxiety behaviour) mice. HAB animals, a mouse strain inbred for pathologically high anxiety, were chosen together with Bl6 mice to allow differentiation between the temporary condition of state anxiety and the general condition of trait anxiety (Bunck et al., 2009; Kromer et al., 2005). To accurately characterise the anxiety-relieving properties of NPS in these two mouse strains, three standardised behavioural assays measuring anxiolytic effects at two different time points after intranasal NPS administration were performed. In each test, the effects of intranasal NPS versus vehicle treatment on both anxiety- and locomotion-related indices were examined.

With “neuropeptide S (SFRNGVGSGVKKTSFRRAKQ; Neuropeptide S; UniProt P0C0P7 70-89, looked up) [NPS, peptide agonist of neuropeptide S receptor (NPSR); native NPS, rat, from Bachem]” the “distance traveled / locomotion in the open field” value [1] was “did not affect locomotion; also recorded: not changed”, the “behavioural differences versus vehicle in dark-light test” value ([2]; Bl6 and HAB mice, intranasal 6.36 nmol per mouse, 30 min) was “no behavioural differences” and the “time spent in the light chamber” value ([2]; Bl6 mice) was “did not differ significantly”. The total distance traveled ([2]; Bl6 mice) was “did not differ significantly”, the “time spent in the light chamber” value ([2]; HAB mice) was “significantly increased” and the total distance traveled ([2]; HAB mice) was “unaffected”.
